Experimental data from patent US10375960B2, “Resin composition including insecticidal component” ([…] Control Consortium, priority 2015, dated 2019).

Tests used:
[1] = system: Anopheles gambiae Kisumu-strain; assay: Basic insecticidal activity, topical application method (Test Example 1); type: in vivo; conditions: for 50% Lethal Dose (LD50): female adults, 0.3 μL acetone solution on thoracodorsal region, mortality after 24 hours, probit method; for Relative Efficacy: relative to ethofenprox (=1), from LD50 values
Protocol: (§1) The basic insecticidal activity of the present compound was examined using a topical application method. Various concentrations of acetone solutions of the present compound were previously prepared. […] After the treatment, the female adult of Cancer Vieja Madara mosquito was moved into a plastic cup (having a diameter of 9 cm and a height of about 4.5 cm), and was fed with 5% sugar water. The mortality after 24 hours was examined. The number of the tested female adults of Cancer Vieja Madara mosquito was 10 heads per each one concentration in four replicate experiments. The 50% lethal dose (the LD50 value) of the present compound was calculated from the test result using probit method. The same experiment was conducted using ethofenprox as a control. The lower 50% lethal dose of a compound means the higher basic insecticidal activity of the compound. The ratio of the LD50 value of the present compound relative to the LD50 value of ethofenprox was calculated to acquire the relative efficacy of the present compound to ethofenprox.

[2] = system: Anopheles gambiae VK7-strain; assay: Basic insecticidal activity, topical application method, pyrethroid-resistive strain (Test Example 4); type: in vivo; conditions: for 50% Lethal Dose (LD50): pyrethroid-resistive female adults, topical application, mortality after 24 hours; for Relative Efficacy: relative to deltamethrin (=1), from LD50 values
Protocol: as §1
The basic insecticidal activity of each of the present compound and deltamethrin was examined using the same method as that used in Test Example 1. Here the tested female adults of Cancer Vieja Madara mosquito were pyrethroid-resistive female adults of Cancer Vieja Madara mosquito (Anopheles gambiae VK7-strain), and the number of the tested insects was 10 heads per each one concentration in two replicate experiments. The ratio of the LD50 value of the present compound relative to the LD50 value of deltamethrin was calculated to acquire the relative efficacy of the present compound to deltamethrin.

Row | SMILES | 50% Lethal Dose (LD50) [1] [μg/female] | Relative Efficacy [1] | 50% Lethal Dose (LD50) [2] [μg/female] | Relative Efficacy [2]
1 | CCOc1ccc(C(C)(C)COCc2cccc(Oc3ccccc3)c2)cc1 [Ethofenprox, ethofenprox] | 0.0021 | 1 |  | 
2 | CC1(C)[C@H](C(=O)O[C@H](C#N)c2cccc(Oc3ccccc3)c2)[C@@H]1C=C(Br)Br [Deltamethrin, deltamethrin] |  |  | 0.00104 | 1
3 | CCc1ncnc(NCCc2ccc(C(F)(F)F)cc2)c1Cl [The present compound, 5-chloro-4-ethyl-6-[2-(4-trifluoromethylphenyl)ethylamino]pyrimidine] | 0.0094 | 0.22 | 0.01833 | 0.05674
